For 5 molecules, EC50 results are on record in patent USRE49735E1 (BRISTOL-MYERS SQUIBB COMPANY, priority 2010, dated 2023).

A value given as a limit tells only on which side of the number the result lay.

Broadly, the EC50 is the concentration giving half of the maximal effect. Read a high EC50 as a need for much substance.

In the assay the target is human mGluR5A (Homo sapiens, UniProt P41594). Put plainly: mGluR5 FLIPR Assay. The assay is classed as cell-based. As to conditions: positive modulator activity; HEK293 (ZF) cells with human mGluR5A and rat GLAST; Ca++ response to ~EC10 glutamate.
Chain of human mGluR5A (P41594 21-1180 isoform P41594-2): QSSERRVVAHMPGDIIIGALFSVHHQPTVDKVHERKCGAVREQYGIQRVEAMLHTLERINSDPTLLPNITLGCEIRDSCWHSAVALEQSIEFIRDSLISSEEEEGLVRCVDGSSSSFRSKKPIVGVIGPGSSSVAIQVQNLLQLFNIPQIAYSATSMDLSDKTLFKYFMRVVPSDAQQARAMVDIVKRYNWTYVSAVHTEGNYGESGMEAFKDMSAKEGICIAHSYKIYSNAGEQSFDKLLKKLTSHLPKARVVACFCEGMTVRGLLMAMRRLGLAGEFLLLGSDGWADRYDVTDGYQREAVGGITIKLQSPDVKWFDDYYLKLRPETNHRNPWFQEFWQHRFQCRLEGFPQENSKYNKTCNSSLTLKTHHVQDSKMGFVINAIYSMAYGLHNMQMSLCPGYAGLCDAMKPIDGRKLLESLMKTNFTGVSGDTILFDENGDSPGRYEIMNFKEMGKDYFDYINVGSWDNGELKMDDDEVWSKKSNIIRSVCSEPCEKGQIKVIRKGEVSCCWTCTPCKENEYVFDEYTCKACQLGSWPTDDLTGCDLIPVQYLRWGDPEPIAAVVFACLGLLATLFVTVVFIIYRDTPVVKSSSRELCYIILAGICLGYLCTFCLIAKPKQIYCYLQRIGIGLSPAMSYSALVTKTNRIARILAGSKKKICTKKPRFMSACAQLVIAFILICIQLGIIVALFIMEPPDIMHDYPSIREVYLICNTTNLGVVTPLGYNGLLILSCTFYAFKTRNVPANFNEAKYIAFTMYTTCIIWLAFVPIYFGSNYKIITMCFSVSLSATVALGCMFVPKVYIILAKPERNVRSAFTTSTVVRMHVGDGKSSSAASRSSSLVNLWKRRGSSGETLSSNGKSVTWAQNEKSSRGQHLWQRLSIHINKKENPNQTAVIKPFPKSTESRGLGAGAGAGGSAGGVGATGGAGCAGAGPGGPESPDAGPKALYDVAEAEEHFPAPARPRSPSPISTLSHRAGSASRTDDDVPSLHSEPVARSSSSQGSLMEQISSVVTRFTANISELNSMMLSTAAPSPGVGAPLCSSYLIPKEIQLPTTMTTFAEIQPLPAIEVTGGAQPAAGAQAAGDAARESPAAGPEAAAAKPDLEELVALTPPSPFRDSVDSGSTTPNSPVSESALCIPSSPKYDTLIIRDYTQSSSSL
The molecule `O=C1N[C@H](c2cncc(C#Cc3cccc(Cl)c3)c2)[C@@H](c2cccc(F)c2)O1` [Example 403, (4R,5R)-4-(5-((3-chlorophenyl)ethynyl)pyridin-3-y1)-5-(3-fluorophenyl)oxazolidin-2-one] gave an EC50 below 100 nM.

In the case of `O=C1N[C@H](c2cncc(C#Cc3ccccc3)c2)[C@@H](c2ccccc2F)O1` [Example 404, (4R,5R)-5-(2-Fluorophenyl)-4-(5-(phenylethynyl)pyridin-3-yl)oxazolidin-2-one], the EC50 was below 100 nM.

As to `O=C1N[C@H](c2ccc(C#Cc3ccccc3)nc2)[C@@H](c2cccc(F)c2)O1` [Example 408, (4R,5R)-5-(3-Fluorophenyl)-4-(6-(phenylethynyl)pyridin-3-yl)oxazolidin-2-one], the concentration for a half-maximal effect (EC50) lay in the range of 100 to 1000 nM.

Molecule `O=C1N[C@@H](c2ccc(C#Cc3ccccc3)cn2)[C@H](c2cccc(F)c2)O1` [Example 409, (4S,5S)-5-(3-Fluorophenyl)-4-(5-(phenylethynyl)pyridin-2-yl)oxazolidin-2-one] displayed an EC50 of 100 to 1000 nM.

For `O=C1N[C@H](c2ccc(C#Cc3ccccc3)cn2)[C@@H](c2cccc(F)c2)O1` [Example 410, (4R,5R)-5-(3-fluorophenyl)-4-(5-(phenylethynyl)pyridin-2-yl)oxazolidin-2-one], the half-maximal effective concentration (EC50) was above 1000 nM.
